Patent publication US20220323406A1, “METHODS AND COMPOSITIONS FOR DIFFERENTIATING STEM CELLS” (Massachusetts Institute of Technology, priority 2019, published 2022)

Experiments:
[1] = system: ENR+CD organoids (ISC to Paneth cell differentiation); assay: Primary screen: basal (non-stimulated) lysozyme secretion LYZ.NS, 2.5-D 384-well ENR+CD organoid differentiation; format: cell-based, mouse
From the text: (§1) High-throughput screening.

ENR+CD organoids = assay: Primary screen: ATP (CellTiter-Glo 3D, CTG) cell number/viability, 2.5-D 384-well ENR+CD organoids;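 note: compounds given at plating and again on day 3 over a 6-day differentiation from ENR+CV stem-cell-enriched precursors, ATP measured on day 6, plate median as control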
[2] = system: ENR+CD organoids (ISC to Paneth cell differentiation); assay: Primary screen: CCh-stimulated lysozyme secretion LYZ.S, 2.5-D 384-well ENR+CD organoid differentiation; format: cell-based, mouse; settings: primary screen
From the text: as §1

[3] = primary screen, dose 0.08 uM, FC relative to plate median
[4] = primary screen, dose 0.08 uM, standard z score
[5] = primary screen, dose 0.40 uM, FC relative to plate median
[6] = primary screen, dose 0.40 uM, standard z score
[7] = primary screen, dose 2.00 uM, FC relative to plate median
[8] = primary screen, dose 2.00 uM, standard z score
[9] = primary screen, dose 10.00 uM, FC relative to plate median
[10] = primary screen, dose 10.00 uM, standard z score
[11] = primary screen; dose 0.08 uM; FC vs plate median
[12] = primary screen; dose 0.40 uM; FC vs plate median
[13] = primary screen; dose 2.00 uM; FC vs plate median
[14] = primary screen; dose 10.00 uM; FC vs plate median
[15] = primary screen, standard z score, dose 0.08 uM
[16] = primary screen, standard z score, dose 0.40 uM
[17] = primary screen, standard z score, dose 2.00 uM
[18] = primary screen, standard z score, dose 10.00 uM

CC(C)c1noc(N2CCC(COc3ccc(-c4ccc(S(C)(=O)=O)cc4)nc3)CC2)n1 [GSK1292263]
Dose.FC.LYZ.NS (log2 fold change) ([1]; primary screen, dose 0.08 uM): 0.078
Z.LYZ.NS (standard z score) ([1]; primary screen, dose 0.08 uM): 0.681
Dose.FC.LYZ.NS (log2 fold change) ([1]; primary screen, dose 0.40 uM): 0.050
Z.LYZ.NS (standard z score) ([1]; primary screen, dose 0.40 uM): 0.434
Dose.FC.LYZ.NS (log2 fold change) ([1]; primary screen, dose 2.00 uM): 0.028
Z.LYZ.NS (standard z score) ([1]; primary screen, dose 2.00 uM): 0.240
Dose.FC.LYZ.NS (log2 fold change) ([1]; primary screen, dose 10.00 uM): 0.020
Z.LYZ.NS (standard z score) ([1]; primary screen, dose 10.00 uM): 0.173
Dose.FC.CTG (log2 fold change) (ENR+CD organoids; primary screen, dose 0.08 uM): 0.161
Z.CTG (standard z score) (ENR+CD organoids; primary screen, dose 0.08 uM): 0.384
Dose.FC.CTG (log2 fold change) (ENR+CD organoids; primary screen, dose 0.40 uM): 0.192
Z.CTG (standard z score) (ENR+CD organoids; primary screen, dose 0.40 uM): 0.458
Dose.FC.CTG (log2 fold change) (ENR+CD organoids; primary screen, dose 2.00 uM): 0.224
Z.CTG (standard z score) (ENR+CD organoids; primary screen, dose 2.00 uM): 0.535
Dose.FC.CTG (log2 fold change) (ENR+CD organoids; primary screen, dose 10.00 uM): 0.196
Z.CTG (standard z score) (ENR+CD organoids; primary screen, dose 10.00 uM): 0.468
Dose.FC.LYZ.S (log2 fold change) ([2]; dose 0.08 uM): 0.111
Dose.FC.LYZ.S (log2 fold change) ([2]; dose 0.40 uM): 0.101
Dose.FC.LYZ.S (log2 fold change) ([2]; dose 2.00 uM): 0.060
Dose.FC.LYZ.S (log2 fold change) ([2]; dose 10.00 uM): 0.027

CCCc1nc2c(C)cc(-c3nc4ccccc4n3C)cc2n1Cc1ccc(-c2ccccc2C(=O)O)cc1 [Telmisartan]
Dose.FC.LYZ.NS [1, 3]: 0.139 log2 fold change
Z.LYZ.NS [1, 4]: 1.213
Dose.FC.LYZ.NS [1, 5]: 0.129 log2 fold change
Z.LYZ.NS [1, 6]: 1.124
Dose.FC.LYZ.NS [1, 7]: 0.057 log2 fold change
Z.LYZ.NS [1, 8]: 0.499
Dose.FC.LYZ.NS [1, 9]: −0.007 log2 fold change
Z.LYZ.NS [1, 10]: −0.060
Dose.FC.CTG (ENR+CD organoids; [3]): 0.134 log2 fold change
Dose.FC.CTG (ENR+CD organoids; [5]): 0.244 log2 fold change
Dose.FC.CTG (ENR+CD organoids; [7]): 0.064 log2 fold change
Dose.FC.CTG (ENR+CD organoids; [9]): 0.230 log2 fold change
Dose.FC.LYZ.S ([2]; dose 0.08 uM, FC relative to plate median): 0.140 log2 fold change
Dose.FC.LYZ.S ([2]; dose 0.40 uM, FC relative to plate median): 0.106 log2 fold change
Dose.FC.LYZ.S ([2]; dose 2.00 uM, FC relative to plate median): 0.063 log2 fold change
Dose.FC.LYZ.S ([2]; dose 10.00 uM, FC relative to plate median): −0.003 log2 fold change

CCN(CC)CCCC(C)Nc1nc(C)cc(Nc2ccc3nc(C)cc(N)c3c2)n1 (stereo not drawn) [NSC 23766]
Z.LYZ.NS [1, 4]: 0.701
Z.LYZ.NS [1, 6]: 0.380
Z.LYZ.NS [1, 8]: 0.506
Z.LYZ.NS [1, 10]: 0.080
Dose.FC.LYZ.NS [1, 11]: 0.081 log2 fold change
Dose.FC.LYZ.NS [1, 12]: 0.044 log2 fold change
Dose.FC.LYZ.NS [1, 13]: 0.058 log2 fold change
Dose.FC.LYZ.NS [1, 14]: 0.009 log2 fold change
Z.CTG (ENR+CD organoids; [4]): 0.103
Z.CTG (ENR+CD organoids; [6]): 0.406
Z.CTG (ENR+CD organoids; [8]): 0.279
Z.CTG (ENR+CD organoids; [10]): 0.774
Dose.FC.CTG (ENR+CD organoids; [11]): 0.043 log2 fold change
Dose.FC.CTG (ENR+CD organoids; [12]): 0.170 log2 fold change
Dose.FC.CTG (ENR+CD organoids; [13]): 0.117 log2 fold change
Dose.FC.CTG (ENR+CD organoids; [14]): 0.324 log2 fold change
Dose.FC.LYZ.S ([2]; dose 0.08 uM, FC vs plate median): 0.080 log2 fold change
Dose.FC.LYZ.S ([2]; dose 0.40 uM, FC vs plate median): 0.090 log2 fold change
Dose.FC.LYZ.S ([2]; dose 2.00 uM, FC vs plate median): 0.031 log2 fold change
Dose.FC.LYZ.S ([2]; dose 10.00 uM, FC vs plate median): 0.030 log2 fold change

CN(C)Cc1ccc(-c2nc3cccc4c3n2CCNC4=O)cc1 [AG-14361]
Dose.FC.LYZ.NS ([1]; primary screen, dose 0.08 uM): 0.152 log2 fold change
Z.LYZ.NS (standard z score) ([1]; primary screen, dose 0.08 uM): 1.324
Dose.FC.LYZ.NS ([1]; primary screen, dose 0.40 uM): 0.036 log2 fold change
Z.LYZ.NS (standard z score) ([1]; primary screen, dose 0.40 uM): 0.312
Dose.FC.LYZ.NS ([1]; primary screen, dose 2.00 uM): 0.032 log2 fold change
Z.LYZ.NS (standard z score) ([1]; primary screen, dose 2.00 uM): 0.278
Dose.FC.LYZ.NS ([1]; primary screen, dose 10.00 uM): −0.197 log2 fold change
Z.LYZ.NS (standard z score) ([1]; primary screen, dose 10.00 uM): −1.713
Dose.FC.CTG (ENR+CD organoids; primary screen, dose 0.08 uM): −0.012 log2 fold change
Z.CTG (standard z score) (ENR+CD organoids; primary screen, dose 0.08 uM): −0.028
Dose.FC.CTG (ENR+CD organoids; primary screen, dose 0.40 uM): −0.069 log2 fold change
Z.CTG (standard z score) (ENR+CD organoids; primary screen, dose 0.40 uM): −0.165
Dose.FC.CTG (ENR+CD organoids; primary screen, dose 2.00 uM): 0.005 log2 fold change
Z.CTG (standard z score) (ENR+CD organoids; primary screen, dose 2.00 uM): 0.012
Dose.FC.CTG (ENR+CD organoids; primary screen, dose 10.00 uM): −0.021 log2 fold change
Z.CTG (standard z score) (ENR+CD organoids; primary screen, dose 10.00 uM): −0.050
Dose.FC.LYZ.S ([2]; dose 0.08 uM): 0.100 log2 fold change
Dose.FC.LYZ.S ([2]; dose 0.40 uM): −0.001 log2 fold change
Dose.FC.LYZ.S ([2]; dose 2.00 uM): −0.065 log2 fold change
Dose.FC.LYZ.S ([2]; dose 10.00 uM): −0.189 log2 fold change

C[C@H](N[C@@H](CCc1ccccc1)C(=O)O)C(=O)N1CCC[C@H]1C(=O)O.O.O [Enalaprilat Dihydrate]
Dose.FC.LYZ.NS ([1]; primary screen, dose 0.08 uM): 0.003 log2 fold change
Dose.FC.LYZ.NS ([1]; primary screen, dose 0.40 uM): −0.003 log2 fold change
Dose.FC.LYZ.NS ([1]; primary screen, dose 2.00 uM): −0.022 log2 fold change
Dose.FC.LYZ.NS ([1]; primary screen, dose 10.00 uM): −0.157 log2 fold change
Z.LYZ.NS [1, 15]: 0.027
Z.LYZ.NS [1, 16]: −0.030
Z.LYZ.NS [1, 17]: −0.195
Z.LYZ.NS [1, 18]: −1.364
Dose.FC.CTG (ENR+CD organoids; primary screen, dose 0.08 uM): −0.190 log2 fold change
Dose.FC.CTG (ENR+CD organoids; primary screen, dose 0.40 uM): −0.124 log2 fold change
Dose.FC.CTG (ENR+CD organoids; primary screen, dose 2.00 uM): −0.331 log2 fold change
Dose.FC.CTG (ENR+CD organoids; primary screen, dose 10.00 uM): −0.979 log2 fold change
Z.CTG (ENR+CD organoids; [15]): −0.454
Z.CTG (ENR+CD organoids; [16]): −0.296
Z.CTG (ENR+CD organoids; [17]): −0.791
Z.CTG (ENR+CD organoids; [18]): −2.338
Dose.FC.LYZ.S ([2]; dose 0.08 uM): −0.001 log2 fold change
Dose.FC.LYZ.S ([2]; dose 0.40 uM): 0.111 log2 fold change
Dose.FC.LYZ.S ([2]; dose 2.00 uM): −0.095 log2 fold change
Dose.FC.LYZ.S ([2]; dose 10.00 uM): −0.281 log2 fold change
